Columns and labels:
[1] = target: T1, PYR1-HAB1 (Arabidopsis thaliana, UniProt O49686); assay: Yeast two-hybrid BD-PYR1 / AD-HAB1 interaction, X-gal stain; format: cell-based; conditions: 10 μM, except epi-brassinolide (50 nM)
T1 construct: the Pyr1 open reading frame was PCR amplified from genomic DNA; expressed in transfected cells; host or cells: yeast strain Y190
T1 sequence (O49686 1-191): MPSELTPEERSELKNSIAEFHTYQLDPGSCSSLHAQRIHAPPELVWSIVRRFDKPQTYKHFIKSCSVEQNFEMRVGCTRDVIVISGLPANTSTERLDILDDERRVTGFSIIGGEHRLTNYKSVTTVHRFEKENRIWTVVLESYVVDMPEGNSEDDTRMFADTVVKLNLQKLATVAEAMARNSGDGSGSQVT
T1 sequence (Q9CAJ0 23-511 partner): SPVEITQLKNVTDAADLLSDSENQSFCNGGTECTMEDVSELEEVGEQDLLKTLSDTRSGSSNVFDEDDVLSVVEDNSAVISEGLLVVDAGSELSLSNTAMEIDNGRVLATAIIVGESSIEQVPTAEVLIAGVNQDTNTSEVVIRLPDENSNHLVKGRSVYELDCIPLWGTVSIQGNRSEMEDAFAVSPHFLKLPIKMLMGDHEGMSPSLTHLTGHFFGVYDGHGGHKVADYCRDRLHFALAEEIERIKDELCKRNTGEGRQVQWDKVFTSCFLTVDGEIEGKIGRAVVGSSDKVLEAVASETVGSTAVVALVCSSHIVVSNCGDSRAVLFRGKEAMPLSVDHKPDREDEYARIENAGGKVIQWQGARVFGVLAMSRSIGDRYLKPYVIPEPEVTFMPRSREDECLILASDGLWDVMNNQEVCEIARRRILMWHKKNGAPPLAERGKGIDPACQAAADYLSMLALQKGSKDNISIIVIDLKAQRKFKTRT
Method: (§1) Given that PYR1 is necessary for pyrabactin action and is a predicted ligand-binding protein, we hypothesized that pyrabactin agonizes ABA signaling by inducing a protein-protein interaction between PYR1 and a downstream effector. To test this, ˜2 million prey cDNA clones were screened against a PYR1 Y2H bait construct on media containing 10 μM pyrabactin. To create the PYR1 Y2H bait construct, the Pyr1 open reading frame was PCR amplified from genomic DNA and cloned to pGem-T easy vector (Promega). After sequence confirmation, the Pyr1 ORF was then cloned in-frame between EcoRI and SalI sites of the pBD-GAL4 Cam vector (Stratagene) and transformed into yeast strain Y190. For the screen, an etiolated seedling cDNA library (J. Kim, K., Harter, A., Theologis, Proc Natl Acad Sci USA 94, 11786 (Oct. 28, 1997)) (ABRC stock CD4-22) was used. The cDNA library was first converted from phage to plasmid DNA, yielding 7.6×10^7 transformants. Plasmid DNA prepared from library was then used to transform Y190 as described in the GAL4 Two-Hybrid system manual (Stratagene). For each screen, 40 μg of prey plasmid was transformed into 1 ml of competent Y190 cell harboring bait construct and then grown on SD agar plates lacking His, Leu, and Trp, but containing 15 mM 3-AT and 10 μM pyrabactin. After 4 days incubation at 30° C., well-grown colonies were rescued and interactions validated using filter lift assay or chloroform-agarose overlay method and X-Gal staining. This identified two pyrabactin-dependent hits which sequencing determined encoded cDNAs for the PP2C HAB1, a close relative of the well-characterized ABA response factor ABI1 (A. Saez et al., The Plant Journal 37, 354 (2004); N. Leonhardt et al., THE PLANT CELL 16, 596 (2004)). Next, Y2H strains expressing an AD-HAB1 fusion protein and a BD-PYR1 fusion protein were grown on plates and tested for interactions in response to various compounds, all at 10 μM except for epi-brassinolide (50 nM) and dimethyl sulfoxide (DMSO) (carrier solvent, 1%). […] Thus, PYR1 interacts with HAB1 in a (+)-ABA dependent fashion.

[2] = target: T2, PYL3-HAB1 (Arabidopsis thaliana, UniProt Q9SSM7); assay: Yeast two-hybrid BD-PYL3 / AD-HAB1 interaction; format: cell-based; conditions: 10 μM
T2 construct: BD-PYR/PYL fusion proteins were constructed in the same manner as for BD-PYR1 above; expressed in transfected cells; host or cells: yeast (Y190, as for BD-PYR1)
T2 sequence (Q9SSM7 1-209): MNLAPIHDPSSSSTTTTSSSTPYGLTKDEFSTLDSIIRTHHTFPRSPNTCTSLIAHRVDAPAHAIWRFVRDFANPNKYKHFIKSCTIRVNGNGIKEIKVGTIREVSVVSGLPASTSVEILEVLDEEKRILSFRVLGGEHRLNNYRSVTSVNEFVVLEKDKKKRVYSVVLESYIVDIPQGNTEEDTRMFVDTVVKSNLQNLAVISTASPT
T2 sequence (Q9CAJ0 23-511 partner): T1 sequence (Q9CAJ0 23-511 partner)
Method: as §1
To see if ABA and pyrabactin responsiveness is unique to PYR1, we tested 11 of the 13 PYL proteins as described above, using Y2H strains expressing an AD-HAB1 fusion protein and a BD-PYR/PYL fusion protein (listed at the left of FIG. 3A). BD-PYR/PYL fusion proteins were constructed in the same manner as for BD-PYR1 above. […] Of these, only Pyr1 is highly transcribed in seeds, which likely explains why mutations in Pyr1 cause the seeds to be insensitive to pyrabactin. […] However the interactions of PYLs 5-12 with the PP2Cs are indicative that the entire protein family is likely to share a similar mechanism of action involving PP2C modulation, as we describe below. Thus, we conclude that entire family modulates ABA responses via PP2C interactions.
The yeast strains expressing PYR/PYL receptors and type 2 C protein phosphatases were also used to screen HPLC-fractionated plant extracts for the presence of endogenous compounds that activate PYL/PYL receptors PYR1, PYL2, PYL3, and/or PYL4. HPLC fractionation of extracts was used to identify compounds different from abscisic acid (the known agonist). […] Purification of the agonist was achieved via multiple rounds of chromatographic separation coupled to yeast two hybrid assays that informed the fractions to move forward at each step of the purification. The structure of the purified agonist was deduced by X-ray crystallography of crystalline purified agonist.

Row | SMILES | PYR1-HAB1 interaction by X-gal stain [1] | PYL3-HAB1 interaction by X-gal stain [2]
1 | CC1=CC(=O)CC(C)(C)C1(O)/C=C/C(C)=C\C(=O)O (single isomer, unassigned; (+)) [(+)-ABA] | strong interactions | respond
2 | CC1=CC(=O)CC(C)(C)[C@@]1(O)/C=C/C(C)=C\C(=O)O [ABA, Abscisic acid] | – | interact with HAB1 in an ABA-stimulated manner
3 | O=S(=O)(NCc1ccccn1)c1ccc(Br)c2ccccc12 [pyrabactin] | promotes interactions | promotes interactions

— US10221426B2, “Constitutively active PYR/PYL receptor proteins for improving plant stress tolerance” (The Regents of the University of California, priority 2009, dated 2019)
